Source: publication PMC9298260, “An Immunomodulatory Peptide Dendrimer Inspired from Glatiramer Acetate” (Angewandte Chemie (International Ed. in English), 2021)

How the values were obtained:
TNF-α = TNF-α time profile in monocytes, RT-qPCR; format: cell-based, human; settings: 50 µg/mL, LPS (100 ng/mL) activated
Description: For closer characterization, we selected dendrimer 1 due to its smaller size and the presence of a cysteine residue that could be used for labelling. […] Furthermore, dendrimer 1 induced the release of IL‐1Ra both with and without LPS activation, but in the latter case the effect was detected only after 18 h incubation (Figure S5e/f).
Enriched monocytes after Percoll centrifugation (4×10^6 cells/3 mL well; 6-well plates) were preincubated for 1 h with or without compounds in RPMI-1640 medium supplemented with 10% heat-inactivated FBS, 50 μg/mL streptomycin, 50 U/mL penicillin, 2 mM L-glutamine, and then incubated for the indicated duration. After the incubation cells were collected, total RNA was extracted, reverse transcribed and analyzed by SYBR Green Master Mix. As a housekeeping gene was used Actin 5'-CAC TGG GGG CTA CTG GAC-3', 3'-AACATGGTGTTGGCAGAAACT-5', IL-1Ra 5'-TTCCTGTTCCATTCAGAGACG -3', 3'-CTTCTGGTTAACATCCCAGATTC -5'.
Figure S5. Dendrimer 1 affected mRNA levels in both LPS -activated and resting monocytes.
Monocytes 4 ×10^6 cells/3 mL in 6 well plates were incubated for indicated time with 50 µg/mL of 1 or without any treatment (NT) (a, c, e); or preincubated for 1 h with 100 ng/mL of LPS, and then with 50 µg/mL of 1 (b, d, f) or without any treatment (NT). […]

PBMC = format: cell-based, human; settings: 100-12.5 µg/mL, 24 h, AlamarBlue further 12 h, fluorescence, normalized to untreated, n = 3
Description: To assess the activity requirements for 1 and 4, we performed a structure–activity relationship (SAR) study on the level of induced IL‐1Ra release measured by immunoassay, which we verified in selected cases at the mRNA level by RT‐qPCR (Figure 2). […]
and centrifuged at the same conditions. PBMC collected from the interface were washed 3 times with supplemented RPMI.
Monocytes purification using magnetic beads labelling Isolation KIT II
Monocytes were purified from whole PBMC by negative selection, all procedures were carried out according to manufacturer protocol. Briefly, the non-monocytes were labeled with a cocktail of biotin-conjugated monoclonal antibodies as a primary labeling reagent. Then as a secondary labeling reagent were used anti-biotin microbeads. The mixture was run through the MACS column (MACS, Miltenyi Biotech) in the magnetic field of a MACS Separator (MACS, Miltenyi Biotech). […]
supplemented with 10% heat-inactivated FBS, 50 μg/mL streptomycin, 50 U/mL penicillin, 2 mM L-glutamine, and 5 μg/mL. […] Then, plates were measured on a Tecan Infinite M1000 Pro plate reader at λex= 560 nm and λem= 590 nm and value normalized to the […]
Figure S1. […] After incubation 50 µl of 50% AlamarBlue was added in supplemented medium for additional 12 h, then fluorescence was measured according to manufacture protocol. […]

Q: How did the “release of TNF-α” value (TNF-α) turn out when “(KA)8(KAK)4(KEKA)2KAKEAYCA-NH2 [compound 1, G3 peptide dendrimer]” was run?
A: inhibited

Q: What about the “viability of PBMC / cellular toxicity” value (PBMC) of the same substance?
A: did not show measurable cellular toxicity
